Entries after “also recorded” stand apart in the source; their conditions may differ.

The subject of test [1] is pig left atrium. As to the kind of experiment: Effect of Kv1.5 blockers on atrial contractility in anesthetized pigs, sinus rhythm. The format is in vivo, German Landrace pigs. The settings on record: 1 mg/kg i.v. The method, then: (§1) A) Test of the Effect of Kv1.5 Blockers on Atrial Contractility in Anesthetized Pigs
(§2) Material and methods: German Landrace pigs were premedicated by an intramuscular injection of 2.5-3.5 mg/kg each of xylazine, tiletamine and zolazepam in a mixing syringe. The anesthesia was induced with pentobarbital (approx. 30 mg/kg i.v.) and maintained by continuous infusion of pentobarbital (12-17 mg/kg/h).
(§3) After induction of anesthesia and after a tracheotomy, the animals were intubated and ventilated with a mixture of ambient air with 40% oxygen.
(§4) The ventilation rate and volume were governed by regularly measured blood gas and pH levels. The body temperature was continuously recorded and controlled by a heated underlay and/or red light lamp and/or warming of the breathed air to keep it constant (about 37-38° C.).
The following blood vessels of the pigs were exposed and cannulated:
External jugular vein (anesthesia infusion), carotid artery (introduction of a tip manometer catheter in the left ventricle to record the pressure there), lateral saphenous vein (dosage of test substance), epigastrica cranialis superficialis vein (fluid infusion), femoral artery (peripheral blood pressure recording) and femoral vein (introduction of MAP catheter right atrium).
The parameters responsible for the contractility are determined using two ultrasonic sensors on the left atrium (P/N JP 5-2, Triton Technology®) [references 1 and 2]. These two piezoelectric sensors are implanted in the cranio-caudal direction through punctuate incisions at the extreme edge of the atrium. The incisions were each closed with a U stitch (2-0 Vicryl®).
The two ultrasonic sensors were than connected to the evaluation unit. In addition, a pressure-measuring catheter was implanted at the ventral edge of the atrium in order to record the left atrial pressure.
The left atrial systolic shortening (LASS) was determined from the atrial diameter at the start of the active atrial pressure curve and the minimum diameter. Since the atrial contractility depends on the initial extension, the left atrial systolic shortening was divided by the value at the start of active atrial contraction (LASS index). The maximum steepness of the contraction curve was determined by importing the raw data points to Microsoft Excel for calculation of the maximum steepness of the curve. In order to exclude breathing-related variations, at least 10 cardiac cycles were analyzed. This parameter, which likewise indicates an improved contractility, is referred to as LASS steepness.
Recording of the initial values was followed by infusion for 10 minutes of the vehicle which was used later and is composed of 0.5 ml of DMSO, 2.5 ml of PEG and 2.0 ml of glucose G20. […]

Test [2] deals with pig left atrium. The experiment in a line: Effect on atrial contractility in anesthetized pigs after one hour of induced atrial fibrillation. The format is in vivo, German Landrace pigs. The protocol:
as §1, §2, §3
In a further series of experiments, the test substance was administered only after one hour of atrial fibrillation induced by persistent high-frequency stimulation (1200 beats/min) of the right atrium. In this case, the parameters of atrial contractility were recorded before/after the period of fibrillation and after administration of the test substance and compared with those after the vehicle control.
as §4
The following blood vessels of the pigs were exposed and cannulated: […]
The parameters responsible for the contractility are determined using two ultrasonic sensors on the left atrium (P/N JP 5-2, Triton Technology®) [references 1 and 2]. […]
The left atrial systolic shortening (LASS) was determined from the atrial diameter at the start of the active atrial pressure curve and the minimum diameter. […] The maximum steepness of the contraction curve was determined by importing the raw data points to Microsoft Excel for calculation of the maximum steepness of the curve. In order to exclude breathing-related variations, at least 10 cardiac cycles were analyzed. […]

In test [3] the test system is pigs with pericardial air instillation. The experiment in a line: Left ventricular ejection (cardiac output) in a model of diastolic dysfunction, pericardial air instillation. The format is in vivo. The settings on record: for Cardiac output, % of the initial value before example 1 / Cardiac output, % of the initial value before instillation / Cardiac output, average: 3 mg/kg i.v. over 30 min. The method, then: B) Improved Left Ventricular Ejection after Kv1.5 Blockers in a Model of Diastolic Dysfunction Methods: Pigs were anesthetized as described in A) and thoracotomized. A flow sensor was attached over the aorta to measure the cardiac output. In a stable hemodynamic situation, air (approx. 30 ml) was instilled into the pericardial using a cannula. The intention of pericardial air instillation is to impede ventricular filling, which eventually leads to a decreased cardiac output (diastolic heart failure). […] The pericardial air instillation leads to a distinct reduction in the cardiac output (table 3).

[4] abbreviates: time not given (start of infusion).

For the molecule `CCCCS(=O)(=O)Nc1ccccc1C(=O)N[C@H](CC)c1ccc(OC)nc1` (single isomer, unassigned) [Example 5], the “LASS, increase in %” value in the test on pig left atrium [1] (after vs before administration) worked out at 68%. In addition, the “LASS, absolute values, after administration” value with pig left atrium [1] (n = 8) is on record as 8.25 ± 1.43.

As to `COc1ccc(CC(=O)NCc2ccccc2-c2ccccc2C(=O)NCCc2cccnc2)cc1` [Example 1, N-(2-pyridin-3-ylethyl)-2′-{[2-(4-methoxyphenyl)acetylamino]-methyl}biphenyl-2-carboxamide], the “LACC steepness, absolute values” in the test on pig left atrium [2] (1 mg/kg i.v., after 1 hour atrial fibrillation) is -0.197 cm/s. Also, in the test with pig left atrium [2] (1 mg/kg i.v., after 1 hour atrial fibrillation, initial value = before AF), the “LACC steepness, in % of the initial value” is 112.6%. Further, the “atrial function / contractility, in words” value in the test on pig left atrium [2] (after one hour of atrial fibrillation) is “statistically significant improvement; also recorded: above the base line level”. In addition, the “LACC steepness, absolute value, after administration” value in the test with pig left atrium [1] is -0.152 ± 0.02 cm/s. In addition, the “LACC steepness, increase in %” value with pig left atrium [1] (after vs before administration) is “+38.2%”. The “Cardiac output, % of the initial value before example 1” value in test [3] (2′) turned out to be 102%; in test [3] (5′) it was 104%; in test [3] (10′), 111%; in test [3] (15′), 117%; in test [3] (20′), 121%; in test [3] (25′) it was 123%. Further, the “Cardiac output, % of the initial value before example 1” value is recorded as 125% in test [3] (30′); 120% in test [3] (35′); 117% in test [3] (40′); 116% in test [3] (50′); 111% in test [3] (60′); 108% in test [3] (70′). In test [3] (setting [4]), the “Cardiac output, % of the initial value before example 1” value is on record as 100%. Further, the “Cardiac output, % of the initial value before instillation” value in test [3] (2′) was 72%; in test [3] (5′), 73%; in test [3] (10′), 78%; in test [3] (15′), 82%; in test [3] (20′), 84%; in test [3] (25′), 86%. In addition, the “Cardiac output, % of the initial value before instillation” value stood at 87% in test [3] (30′); 85% in test [3] (35′); 83% in test [3] (40′); 82% in test [3] (50′); 79% in test [3] (60′); 78% in test [3] (70′). For the same molecule, the “Cardiac output, % of the initial value before instillation” value in test [3] (setting [4]) amounted to 71%. The “Cardiac output, average” value in test [3] (2′) came to 1.55 L/min; in test [3] (5′), 1.58 L/min; in test [3] (10′), 1.69 L/min; in test [3] (15′), 1.78 L/min; in test [3] (20′), 1.84 L/min; in test [3] (25′), 1.88 L/min. Moreover, the “Cardiac output, average” value was found to be 1.90 L/min in test [3] (30′); 1.83 L/min in test [3] (35′); 1.79 L/min in test [3] (40′); 1.76 L/min in test [3] (50′); 1.69 L/min in test [3] (60′); 1.65 L/min in test [3] (70′). For the same molecule, the “Cardiac output, average” value in test [3] (setting [4]) was found to be 1.53 L/min. For the same molecule, the “maximum increase in the reduced cardiac output” value in test [3] (3 mg/kg infused in 30 min, n=11) is on record as 25%.

For the origin of these results see patent US20070043091A1, “Kv1.5-BLOCKER FOR THE SELECTIVE INCREASE OF ATRIAL CONTRACTILITY AND TREATMENT OF CARDIAC [sequence]” (SANOFI-AVENTIS DEUTSCHLAND GMBH, priority 2004, published 2007).
